Data: patent US4021481A, “Amido derivatives of 2,4,6-triiodobenzoic acids containing at least one N-hydroxyalkyl and at least two hydroxyl groups” (Nyegaard & Co. A/S, priority 1969, dated 1977)
Values after ≈ are worked out from the molar mass of the structure shown. Like-named read-outs stand apart in the source and are kept apart here.

Columns and labels:
Solubility in water = assay type: physicochemical; settings: for solubility: water
mice [1] = test: Intravenous toxicity in mice (LD50); assay type: in vivo
Text: (§1) As indicated above, the new non-ionic compounds according to the invention have shown markedly low levels of toxicity, especially in intracerebral tests. […] It will be seen that all the new compounds listed are very much better than the known compounds in the intracerebral test.
(§2) Intravenous and Intracerebral Toxicity
(§3) Most of the compounds were so inert that it was not physically possible to inject sufficient substance to kill 50% of the mice and in such cases only a minimum value can be given for the LD50.

mice [2] = test: Intracerebral toxicity in mice (LD50); assay type: in vivo
Text: as §1, §2, §3

[3] = Osmolality of aqueous solution; assay type: physicochemical; settings: 37° C.; 300 mg I/ml
Method: As indicated above, the compounds according to the invention are of low osmolality as compared to conventional ionic contrast agents and many of the compounds show even lower osmolality values than would have been expected. The observed osmolality in each case would be expected to be about 0.8 mol/kg but compounds 3, 33, 35, 44 and 11 identified in Table I have shown osmolality values of 0.47, 0.48, 0.61, 0.53 and 0.48 mol/kg respectively at 37° C. (300 mg I ml). The last two compounds in Table 2, which are ionic compounds shown for comparison, have osmolality values of about 1.6 mol/kg.

[4] = room temperature, read-out: Solubility in water at room temperature (class)
[5] = room temperature, figure in parentheses, read-out: Solubility in water at room temperature
[6] = 300 mgI/ml, dose 0.10 ml/20 g mouse
[7] = concentration administered 300 mgI/ml
[8] = 300 mgI/ml, dose 0.05 ml/20 g mouse
[9] = 400 mgI/ml, dose 0.05 ml/20 g mouse
[10] = concentration administered 280 mgI/ml, N-methylglucamine salt
[11] = known compounds, dose 0.05 ml/20 g mouse, concentration not given

SMILES: CC(=O)OCCN(C(C)=O)c1c(I)c(C(=O)N(C)C[C@H](O)[C@@H](O)[C@H](O)[C@H](O)CO)c(I)c(N(C)C(C)=O)c1I [Compound 36, N-[3-N-methylacetamido-5-N-(β-acetoxyethyl)-acetamido-2,4,6-triiodobenzoyl]-N-methylglucamine]
- solubility (Solubility in water; [4]): 200 to 500 mg/mL (≈ 224 to 561 mM)

SMILES: CC(=O)Nc1c(I)c(C(=O)N(CCO)CCO)c(I)c(N(C)C(C)=O)c1I [Compound 34, N-(N-methyl-3,5-diacetamido-2,4,6-triiodobenzoyl)-N,N-di-(β-hydroxyethyl)-amine]
- solubility (Solubility in water; [5]): 213 mg/mL (≈ 298 mM)
- solubility (Solubility in water; [4]): 200 to 500 mg/mL (≈ 280 to 699 mM)

SMILES: CC(=O)N(CCO)c1c(I)c(C(=O)NCCO)c(I)c(N(CCO)C(C)=O)c1I [Compound 45, N-[3,5-bis-N-(β-hydroxyethyl)-acetamido-2,4,6-triiodobenzoyl]-ethanolamine]
- solubility (Solubility in water; [5]): 214 mg/mL (≈ 287 mM)
- solubility (Solubility in water; [4]): 200 to 500 mg/mL (≈ 268 to 671 mM)

SMILES: CC(=O)Nc1c(I)c(NC(C)=O)c(I)c(C(=O)N[C@H]2C(O)O[C@H](CO)[C@@H](O)[C@@H]2O)c1I (stereo partly shown) [Compound 14, N-(3,5-diacetamido-2,4,6-triiodobenzoyl)-glucosamine]
- solubility (Solubility in water; [4]): > 500 mg/mL

SMILES: CC(=O)N(CCO)c1c(I)c(C(=O)N(CCO)CCO)c(I)c(N(CCO)C(C)=O)c1I [Compound 5, N-[N,N'-di-(β-hydroxyethyl)-3,5-diacetamido-2,4,6-triiodobenzoyl]-diethanolamine]
- solubility (Solubility in water; [4]): > 500 mg/mL

SMILES: CC(=O)N(CCO)c1c(I)c(C(=O)N[C@H]2C(O)O[C@H](CO)[C@@H](O)[C@@H]2O)c(I)c(N(CCO)C(C)=O)c1I (stereo partly drawn) [Compound 12, N-[N,N'-di-(β-hydroxyethyl)-3,5-diacetamido-2,4,6-triiodobenzoyl]-glucosamine]
- Intravenous LD50 (mice [1]; concentration administered 300 mgI/ml, dose 0.8 ml/20 g mouse): > 12000 mgI/kg
- Intracerebral LD50 (mice [2]; [6]): > 1500 mgI/kg
- solubility (Solubility in water; [4]): > 500 mg/mL

SMILES: CC(=O)N(C)c1c(I)c(C(=O)N[C@H]2C(O)O[C@H](CO)[C@@H](O)[C@@H]2O)c(I)c(N(CCO)C(C)=O)c1I (stereo partly drawn) [Compound 10, N-[3-N-(β-hydroxyethyl)-acetamido-5-N-methylacetamido-2,4,6-triiodobenzoyl]-glucosamine]
- Intravenous LD50 (mice [1]; [7]): 8250 mgI/kg
- Intracerebral LD50 (mice [2]; [8]): > 750 mgI/kg
- Intracerebral LD50 (mice [2]; [6]): > 1500 mgI/kg
- solubility (Solubility in water; [4]): > 500 mg/mL

SMILES: CC(=O)Nc1c(I)cc(I)c(C(=O)N(C)C[C@H](O)[C@@H](O)[C@H](O)[C@H](O)CO)c1I [Compound 30, N-(3-acetamido-2,4,6-triiodobenzoyl)-N-methyl-glucamine]
- solubility (Solubility in water; [4]): > 500 mg/mL

SMILES: CC(=O)N(C)c1c(I)c(C(=O)NCCO)c(I)c(N(CCO)C(C)=O)c1I [Compound 37, N-[3-N-methylacetamido-5-N-(β-hydroxyethyl)-acetamido-2,4,6-triiodobenzoyl]-ethanolamine]
- solubility (Solubility in water; [5]): 4 mg/mL (≈ 5.59 mM)
- solubility (Solubility in water; [4]): < 200 mg/mL

SMILES: CC(=O)N(C)c1c(I)c(C(=O)N(C)CC(O)CO)c(I)c(N(CCO)C(C)=O)c1I (stereo not drawn) [Compound 4, N-[3-N-(β-hydroxyethyl)-acetamido-5-N-methylacetamido-2,4,6-triiodobenzoyl]-N-methyl-2,3-dihydroxypropylamine]
- Intracerebral LD50 (mice [2]; [9]): > 1000 mgI/kg
- solubility (Solubility in water; [4]): > 500 mg/mL

SMILES: CNC(=O)c1c(I)c(NC(C)=O)c(I)c(C(=O)O)c1I [5-Acetamido-2,4,6-triiodo-N-methylisophthalamic acid, reference compound]
- Intravenous LD50 (mice [1]; [10]): 6000 mgI/kg
- Intracerebral LD50 (mice [2]; [11]): 210 mgI/kg

SMILES: CC(=O)N(C)c1c(I)cc(I)c(C(=O)NC[C@H](O)[C@@H](O)[C@H](O)[C@H](O)CO)c1I [Compound 1, N-(3-N-methylacetamido-2,4,6-triiodobenzoyl)-glucamine]
- solubility (Solubility in water; [4]): > 500 mg/mL

SMILES: CNC(=O)c1c(I)c(NC(C)=O)c(I)c(C(=O)N[C@H]2C(O)O[C@H](CO)[C@@H](O)[C@@H]2O)c1I (stereo partly drawn) [Compound 19, N-(3-acetamido-5-N-methylcarbamoyl-2,4,6-triiodobenzoyl)-D-glucosamine]
- solubility (Solubility in water; 28°, read-out: Solubility in water at 28°): 14 mg/mL (≈ 18.1 mM)

SMILES: CC(=O)N(C)c1c(I)c(C(=O)N(CCO)CCO)c(I)c(N(CCO)C(C)=O)c1I [Compound 39, N-[3-N-methylacetamido-5-N-(β-hydroxyethyl)-acetamido-2,4,6-triiodobenzoyl]-diethanolamine]
- solubility (Solubility in water; [4]): > 500 mg/mL

SMILES: CN(C[C@H](O)[C@@H](O)[C@H](O)[C@H](O)CO)S(=O)(=O)CI [Compound 28, N-(Iodomethane sulphonyl)-N-methylglucamine]
- Solubility in hot water (Solubility in water; in words): Very soluble in hot water
- solubility (Solubility in water; cold water, read-out: Solubility in cold water): ~100 mg/mL (≈ 250 mM)

SMILES: CC(=O)N(CCO)c1c(I)c(C(=O)N(C)CC(O)CO)c(I)c(N(CCO)C(C)=O)c1I (stereo not shown) [Compound 44]
- Intracerebral LD50 (mice [2]; [8]): > 750 mgI/kg
- Intracerebral LD50 (mice [2]; [6]): > 1500 mgI/kg
- solubility (Solubility in water; [4]): > 500 mg/mL
- Osmolality [3]: 0.53 mol/kg

SMILES: O=S(=O)(CI)N(CCO)CCO [Compound 29, N-(Iodomethanesulphonyl)-diethanolamine]
- Solubility in cold water (Solubility in water; cold water, in words): sparingly soluble in cold
- Solubility in hot water (Solubility in water; in words): Soluble in hot water

SMILES: CNC(=O)c1c(I)c(NC(C)=O)c(I)c(C(=O)N(C)C[C@H](O)[C@@H](O)[C@H](O)[C@H](O)CO)c1I [Compound 6]
- Intravenous LD50 (mice [1]; [7]): 10000 mgI/kg
- Intracerebral LD50 (mice [2]; [6]): > 1500 mgI/kg
- solubility (Solubility in water; [4]): > 500 mg/mL

SMILES: O=S(=O)(O)CI [Iodomethanesulphonic acid, reference compound]
- Intracerebral LD50 (mice [2]; [11]): 195 mgI/kg

SMILES: CC(=O)N(C)c1c(I)c(C(=O)NCC(O)CO)c(I)c(N(CCO)C(C)=O)c1I (stereo not drawn) [Compound 40, N-[3-N-methylacetamido-5-N-(β-hydroxyethyl)-acetamido-2,4,6-triiodobenzoyl]-N-(2,3-dihydroxypropyl)-amine]
- solubility (Solubility in water; [5]): 2.6 mg/mL (≈ 3.49 mM)
- solubility (Solubility in water; [4]): < 200 mg/mL

SMILES: CC(=O)N(C)c1c(I)c(C(=O)N(C)CCO)c(I)c(N(CCO)C(C)=O)c1I [Compound 38, N-[3-N-methylacetamido-5-N-(β-hydroxyethyl)-acetamido-2,4,6-triiodobenzoyl]-N-methylethanolamine]
- solubility (Solubility in water; [5]): 255 mg/mL (≈ 350 mM)
- solubility (Solubility in water; [4]): 200 to 500 mg/mL (≈ 274 to 686 mM)

SMILES: CC(=O)N(C)c1c(I)c(C(=O)NC(CO)(CO)CO)c(I)c(N(CCO)C(C)=O)c1I [Compound 41, N-[3-N-methylacetamido-5-N-(β-hydroxyethyl)-acetamido-2,4,6-triiodobenzoyl]-N-[tris-(hydroxymethyl)-methyl]-amine]
- solubility (Solubility in water; [5]): 8.6 mg/mL (≈ 11.1 mM)
- solubility (Solubility in water; [4]): < 200 mg/mL

SMILES: CNC(=O)c1c(I)c(NC(C)=O)c(I)c(C(=O)N(CCO)C[C@H](O)[C@@H](O)[C@H](O)[C@H](O)CO)c1I [Compound 49, N-(3-Acetamido-5-N-methylcarbamoyl-2,4,6-triiodobenzoyl)-N-(2-hydroxyethyl)-glucamine]
- Intravenous LD50 (mice [1]; [7]): 15000 mgI/kg
- Intracerebral LD50 (mice [2]; [6]): > 1500 mgI/kg

SMILES: CC(=O)Nc1c(I)c(C(=O)O)c(I)c(N(C)C(C)=O)c1I [N-Methyl-3,5-diacetamido-2,4,6-triiodobenzoic acid, reference compound]
- Intravenous LD50 (mice [1]; [10]): 6000 mgI/kg
- Intracerebral LD50 (mice [2]; [11]): 130 mgI/kg

SMILES: CC(=O)N(CCO)c1c(I)c(C(=O)N(C)C[C@H](O)[C@@H](O)[C@H](O)[C@H](O)CO)c(I)c(N(CCO)C(C)=O)c1I [Compound 43, N-[3,5-bis-N-(β -hydroxyethyl)-acetamido-2,4,6-triiodobenzoyl]-N-methylglucamine]
- Intravenous LD50 (mice [1]; [7]): 7500 mgI/kg
- Intracerebral LD50 (mice [2]; [9]): > 1000 mgI/kg
- Intracerebral LD50 (mice [2]; 400 mgI/ml, dose 0.10 ml/20 g mouse): > 2000 mgI/kg
- solubility (Solubility in water; [4]): > 500 mg/mL

SMILES: CC(=O)N(C)c1c(I)cc(I)c(C(=O)N(C)C[C@H](O)[C@@H](O)[C@H](O)[C@H](O)CO)c1I [Compound 31, N-(3-N-methylacetamido-2,4,6-triiodobenzoyl)-N-methylglucamine]
- solubility (Solubility in water; [4]): > 500 mg/mL

SMILES: CC(=O)Nc1c(I)c(C(=O)N[C@@H](CO)[C@@H](O)[C@H](O)[C@H](O)CO)c(I)c(N(C)C(C)=O)c1I [Compound 15, N-(N-methyl-3,5-diacetamido-2,4,6-triiodobenzoyl)-2-glucamine]
- Intravenous LD50 (mice [1]; concentration administered 300 mgI/ml, dose 1.0 ml/20 g mouse): > 15000 mgI/kg
- Intracerebral LD50 (mice [2]; [6]): > 1500 mgI/kg
- solubility (Solubility in water; [4]): > 500 mg/mL

SMILES: CC(=O)N(C)c1c(I)cc(I)c(C(=O)N[C@H]2C(O)O[C@H](CO)[C@@H](O)[C@@H]2O)c1I (stereo partly drawn) [Compound 32, N-(3-N-methylacetamido-2,4,6-triodobenzoyl)-D-glucosamine]
- solubility (Solubility in water; [4]): > 500 mg/mL

SMILES: CC(=O)Nc1c(I)c(NC(C)=O)c(I)c(C(=O)N(C)C[C@H](O)[C@@H](O)[C@H](O)[C@H](O)CO)c1I [Compound 25, N-(3,5-diacetamido-2,4,6-triiodobenzoyl)-N-methyl-glucamine]
- solubility (Solubility in water; [5]): 79 mg/mL (≈ 99.9 mM)
- solubility (Solubility in water; [4]): < 200 mg/mL

SMILES: CC(=O)NCc1c(I)c(NC(C)=O)c(I)c(C(=O)N(C)C[C@H](O)[C@@H](O)[C@H](O)[C@H](O)CO)c1I [Compound 7, N-(3-Acetamido-5-acetamidomethyl-2,4,6-triiodobenzoyl)-N-methylglucamine]
- solubility (Solubility in water; [4]): > 500 mg/mL
